What follows are compounds tested on KM12 cells (assay: KM12 cell viability (CellTiter-Glo)). Conditions: Homo sapiens, 72 h; KM12 cell viability, 11-point 3-fold serial dilution, 3 days, CellTiter-Glo; read-out: IC50.
Format: cell-based
Experimental: KM12 or H358 cells were treated with 1000 nM CPD-053 following an 8-point 3-fold serial dilution for 3 days.
KM12 cells seeded in 96-well plates were treated with heterobifunctional compounds following a 11-point 3-fold serial dilution for 3 days.
KM12, H358, HEL, SU-DHL-1 and other cells were cultured at 37° C. with 5% CO2 in RPMI 1640 Medium supplemented with 10% fetal bovine serum. Cells were authenticated using the short tandem repeat (STR) assays. Mycoplasma test results were negative. Stable cell lines were established by lentivirus transduction, selected and maintained in medium containing 1 μg/mL puromycin (Beyotime Biotechnology).
Cells were seeded at a density of 5000 cells per well in 96-well assay plates and treated with test compounds following a 12-point 2-fold serial dilution or a 8-point 3-fold dilution, or 11-point 3-fold serial dilution. Three days later, cell viability was determined using the CellTiter-Glo assay kit (Promega) according to the manufacturer's instructions. The dose-response curves were determined and IC50 values were calculated using the GraphPad Prism software following a nonlinear regression (least squares fit) method.

Row | SMILES | IC50
1 | O=C1CCC(N2C(=O)c3ccc(NCC(=O)N4CCC(Nc5cccc(C(=O)Nc6cnn7ccc(N8CCC[C@@H]8c8cc(F)ccc8F)nc67)n5)CC4)cc3C2=O)C(=O)N1 (stereo partly drawn) [CPD-460, N-(5-((R)-2-(2,5-difluorophenyl)pyrrolidin-1-yl)pyrazolo[1,5-a]pyrimidin-3-yl)-6-((1-((2-(2,6-dioxopiperidin-3-yl)-1,3-dioxoisoindolin-5-yl)glycyl)piperidin-4-yl)amino)picolinamide] | 0.032 µM
2 | Cc1ncsc1-c1ccc(CNC(=O)[C@@H]2C[C@@H](O)CN2C(=O)[C@@H](NC(=O)CCC(=O)N2CCC(Nc3cccc(C(=O)Nc4cnn5ccc(N6CCC[C@@H]6c6cc(F)ccc6F)nc45)n3)CC2)C(C)(C)C)cc1 [CPD-461, N-(5-((R)-2-(2,5-difluorophenyl)pyrrolidin-1-yl)pyrazolo[1,2-a]pyrimidin-3-yl)-6-((1-(4-(((S)-1-((2S,4R)-4-hydroxy-2-((4-(4-methylthiazol-5-yl)benzyl)carbamoyl)pyrrolidin-1-yl)-3,3-dimethyl-1-oxobutan-2-yl)amino)-4-oxobutanoyl)piperidin-4-yl)amino)picolinamide] | > 1 µM
3 | Cc1ncsc1-c1ccc(CNC(=O)[C@@H]2C[C@@H](O)CN2C(=O)[C@@H](NC(=O)CCCCC(=O)N2CCC(Nc3cccc(C(=O)Nc4cnn5ccc(N6CCC[C@@H]6c6cc(F)ccc6F)nc45)n3)CC2)C(C)(C)C)cc1 [CPD-462, N-(5-((R)-2-(2,5-difluorophenyl)pyrrolidin-1-yl)pyrrazolo[1,5-a]pyrimidin-3-yl)-6-((1-(6-(((S)-1-((2S,4R)-4-hydroxy-2-((4-(4-methylthiazol-5-yl)benzyl)carbamoyl)pyrrolidin-1-yl)-3,3-dimethyl-1-oxobutan-2-yl)amino)-6-oxohexanoyl)piperidin-4-yl)amino)picolinamide] | > 1 µM
4 | Cc1ncsc1-c1ccc(CNC(=O)[C@@H]2C[C@@H](O)CN2C(=O)[C@@H](NC(=O)CCCCCCC(=O)N2CCC(Nc3cccc(C(=O)Nc4cnn5ccc(N6CCC[C@@H]6c6cc(F)ccc6F)nc45)n3)CC2)C(C)(C)C)cc1 [CPD-463, N-(5-((R)-2-(2,5-difluorophenyl)pyrrolidin-1-yl)pyrazolo[1,5-a]pyrimidin-3-yl)-6-((1-(8-(((S)-1-((2S,4R)-4-hydroxy-2-((4-(4-methylthiazol-5-yl)benzyl)carbamoyl)pyrrolidin-1-yl)-3,3-dimethyl1-oxobutan-2-yl)amino)-8-oxooctanoyl)piperidin-4-yl)amino)picolinamide] | 0.443 µM

Same assay, conditions: Homo sapiens, 72 h; KM12 cell viability, CellTiter-Glo, three days treatment; read-out: IC50

Row | SMILES | IC50
5 | Cc1ncsc1-c1ccc(CNC(=O)[C@@H]2C[C@@H](O)CN2C(=O)[C@@H](NC(=O)COCCOCCOCCOCCOCC(=O)N2CCN(c3cccc(-c4cnc5ccc(N6CCCC6c6cccc(F)c6)nn45)n3)CC2)C(C)(C)C)cc1 (stereo partly drawn) [CPD-003, (25,4R)-1-((S)-2-(tert-butyl)-20-(4-(6-(6-((R)-2-(3-Fluorophenyl)pyrrolidin-1-yl)imidazo[1,2-b]pyridazin-3-yl)pyridin-2-yl)piperazin-1-yl)-4,20-dioxo-6,9,12,15,18-pentaoxa-3-azaicosanoyl)-4-hydroxy-N-(4-(4-methylthiazol-5-yl)benzyl)pyrrolidine-2-carboxamide] | > 1 µM
6 | Cc1ncsc1-c1ccc(CNC(=O)[C@@H]2C[C@@H](O)CN2C(=O)[C@@H](NC(=O)CCOCCOCCOCCOCCOCCC(=O)N2CCN(c3cccc(-c4cnc5ccc(N6CCCC6c6cccc(F)c6)nn45)n3)CC2)C(C)(C)C)cc1 (stereo partly drawn) [CPD-005, (25,4R)-1-((S)-2-(tert-butyl)-22˜ (4-(6-(6-((R)-2˜ (3-Fluorophenyl)pyrrolidin-1-yl)imidazo[1,2-b]pyridazin-3-yl)pyridin-2-yl)piperazin-1-yl)-4,22-dioxo-7,10,13,16,19-pentaoxa-3-azadocosanoyl)-4-hydroxy-N-(4-(4-methylthiazol-5-yl)benzyl)pyrrolidine-2-carboxamide] | > 1 µM
7 | Cc1ncsc1-c1ccc(CNC(=O)[C@@H]2CC(O)CN2C(=O)[C@@H](NC(=O)CCOCCOCCOCCOCCOCCC(=O)N2CCN(c3ccc(C(=O)Nc4n[nH]c5ccc(Cc6cc(F)cc(F)c6)cc45)c(NC4CCOCC4)c3)CC2)C(C)(C)C)cc1 (stereo partly drawn) [CPD-043, (28,4R)-1-((S)-2-(tert-butyl)-22-(4-(4-((5-(3,5-Difluorobenzyl)-1H-indazol-3-yl)carbamoyl)-3-((tetrahydro-2H-pyran-4-yl)amino)phenyl)piperazin-1-yl)-4,22-dioxo-7,10,13,16,19-pentaoxa-3-azadocosanoyl)-4-hydroxy-N-(4-(4-methylthiazol-5-yl)benzyl)pyrrolidine-2-carboxamide] | > 1 µM

Each compound was assayed against T1, TPM3-TRKA fusion protein (Homo sapiens, UniProt P04629) (assay: TPM3-TRKA fusion protein levels in KM12 cells (Western blot)). Conditions: 16 h; TPM3-TRKA degradation in KM12 cells at 10 nM compound, category of percentage degradation; read-out: Degradation (at 10 nM).
T1 construct: The resulted chimeric proteins always retain the kinase domain of TRK proteins; TPM3 (fusion partner, N-terminal part of tropomyosin alpha-3, P06753); endogenous in cells; host or cells: KM12 colon cancer cells; the other entry of the earlier key: TPM3 (P06753, Tropomyosin alpha-3 chain)
T1 sequence (P04629 with tags, fused parts or gaps): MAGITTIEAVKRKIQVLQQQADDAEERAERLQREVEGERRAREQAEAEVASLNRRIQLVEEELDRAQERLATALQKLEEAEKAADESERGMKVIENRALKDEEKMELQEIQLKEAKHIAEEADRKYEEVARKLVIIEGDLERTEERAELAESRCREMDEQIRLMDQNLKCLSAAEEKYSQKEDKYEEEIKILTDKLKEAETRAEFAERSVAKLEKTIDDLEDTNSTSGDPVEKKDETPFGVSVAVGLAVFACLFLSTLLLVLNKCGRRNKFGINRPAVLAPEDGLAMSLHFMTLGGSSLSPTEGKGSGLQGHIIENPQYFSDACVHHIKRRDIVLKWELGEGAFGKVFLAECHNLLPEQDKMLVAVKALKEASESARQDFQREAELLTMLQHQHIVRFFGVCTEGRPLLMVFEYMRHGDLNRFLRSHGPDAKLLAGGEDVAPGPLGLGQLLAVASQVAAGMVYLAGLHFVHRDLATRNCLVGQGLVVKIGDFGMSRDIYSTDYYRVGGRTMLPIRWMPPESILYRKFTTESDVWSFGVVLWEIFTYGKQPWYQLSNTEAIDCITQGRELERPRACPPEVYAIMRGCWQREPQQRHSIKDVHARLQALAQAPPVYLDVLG
Format: cell-based
Outline: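 TPM3-TRKA levels were assessed by Western blot with chemiluminescent detection and band densitometry, after SDS-PAGE of BCA-normalized RIPA lysates. Before lysis, KM12 cells received DMSO, compounds or matched control compounds at concentrations including 0.1, 1, 10 and 100 nM and 0.4–30 nM. Exposures lasted 4 h, 8–16 h or 16 h.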

Row | SMILES | percent degradation of TPM3-TRKA protein at 0.01 µM
8 | O=C1CCC(N2Cc3cc(NCC4CCN(c5cccc(-c6cnc7ccc(N8CCC[C@@H]8c8cccc(F)c8)nn67)n5)CC4)ccc3C2=O)C(=O)N1 (stereo partly drawn) [TR-218, 3-(5-(((1-(6-(6-((R)-2-(3-fluorophenyl)pyrrolidin-1-yl)imidazo[1,2-b]pyridazin-3-yl)pyridin-2-yl)piperidin-4-yl)methyl)amino)-1-oxoisoindolin-2-yl)piperidine-2,6-dione] | 50 to 80%
9 | O=C1CCC(N2Cc3cc(C#CC4CN(c5cccc(-c6cnc7ccc(N8CCC[C@@H]8c8cccc(F)c8)nn67)n5)C4)ccc3C2=O)C(=O)N1 (stereo partly drawn) [TR-219, 3-(5-((1-(6-(6-((R)-2-(3-Fluorophenyl)pyrrolidin-1-yl)imidazo[1,2-b]pyridazin-3-yl)pyridin-2-yl)azetidin-3-yl)ethynyl)-1-oxoisoindolin-2-yl)piperidine-2,6-dione] | 50 to 80%
10 | Cn1c(=O)n(C2CCC(=O)NC2=O)c2ccc(NCCN3CCN(c4cccc(-c5cnc6ccc(N7CCC[C@@H]7c7cccc(F)c7)nn56)n4)CC3)cc21 (stereo partly drawn) [TR-220, 3-(5-((2-(4-(6-(6-((R)-2-(3-Fluorophenyl)pyrrolidin-1-yl)imidazo[1,2-b]pyridazin-3-yl)pyridin-2-yl)piperazin-1-yl)ethyl)amino)-3-methyl-2-oxo-2,3-dihydro-1H-benzo[d]imidazol-1-yl)piperidine-2,6-dione] | > 80%
11 | O=C1CCC(N2C[C@H](c3cccc(C#CCN4CCN(c5cccc(-c6cnc7ccc(N8CCC[C@@H]8c8cccc(F)c8)nn67)n5)CC4)c3)OC2=O)C(=O)N1 (stereo partly drawn) [TR-223, 3-((S)-5-(3-(3-(4-(6-(6-((R)-2-(3-fluorophenyl)pyrrolidin-1-yl)imidazo[1,2-b]pyridazin-3-yl)pyridin-2-yl)piperazin-1-yl)prop-1-yn-1-yl)phenyl)-2-oxooxazolidin-3-yl)piperidine-2,6-dione] | 50 to 80%
12 | O=C1CCC(N2C(=O)c3ccc(N4CCC(CN5CCN(c6cccc(-c7cnc8ccc(N9CCC[C@@H]9c9cccc(F)c9)nn78)n6)CC5)CC4)cc3C2=O)C(=O)N1 (stereo partly drawn) [TR-226, 2-(2,6-dioxopiperidin-3-yl)-5-(4-((4-(6-(6-((R)-2-(3-fluorophenyl)pyrrolidin-1-yl)imidazo[1,2-b]pyridazin-3-yl)pyridin-2-yl)piperazin-1-yl)methyl)piperidin-1-yl)isoindoline-1,3-dione] | > 80%
13 | O=C1CCC(N2C[C@H](c3ccc(CN4CCN(c5cccc(-c6cnc7ccc(N8CCC[C@@H]8c8cccc(F)c8)nn67)n5)CC4)cc3)OC2=O)C(=O)N1 (stereo partly drawn) [TR-229, 3-((S)-5-(4-((4-(6-(6-((R)-2-(3-fluorophenyl)pyrrolidin-1-yl)imidazo[1,2-b]pyridazin-3-yl)pyridin-2-yl)piperazin-1-yl)methyl)phenyl)-2-oxooxazolidin-3-yl)piperidine-2,6-dione] | 50 to 80%
14 | O=C1CCC(N2C(=O)c3ccc(NCCN4CCN(c5ccc(C(=O)Nc6n[nH]c7ccc(Cc8cc(F)cc(F)c8)cc67)c(NC6CCOCC6)c5)CC4)cc3C2=O)C(=O)N1 (stereo not shown) [TR-232, N-(5-(3,5-difluorobenzyl)-1H-indazol-3-yl)-4-(4-(2-((2-(2,6-dioxopiperidin-3-yl)-1,3-dioxoisoindolin-5-yl)amino)ethyl)piperazin-1-yl)-2-((tetrahydro-2H-pyran-4-yl)amino)benzamide] | > 80%
15 | O=C1CCC(N2C[C@H](c3cccc(CN4CCN(c5cccc(-c6cnc7ccc(N8CCC[C@@H]8c8cccc(F)c8)nn67)n5)CC4)c3)OC2=O)C(=O)N1 (stereo partly drawn) [TR-235, 3—((S)-5-(3-((4-(6-(6-((R)-2-(3-Fluorophenyl)pyrrolidin-1-yl)imidazo[1,2-b]pyridazin-3-yl)pyridin-2-yl)piperazin-1-yl)methyl)phenyl)-2-oxooxazolidin-3-yl)piperidine-2,6-dione] | 50 to 80%

Same assay, conditions: KM12, 16 h, read-out: Degradation (at 10 nM)

Row | SMILES | percent degradation of TPM3-TRKA protein at 0.01 µM
16 | Cn1c(=O)n(C2CCC(=O)NC2=O)c2cccc(OCCCN3CCN(c4cccc(-c5cnc6ccc(N7CCC[C@@H]7c7cccc(F)c7)nn56)n4)CC3)c21 (stereo partly shown) [TR-245] | < 50%
